Measured values published in patent US10669272B2, “Substituted naphthyridinone compounds useful as T cell activators” (BRISTOL-MYERS SQUIBB COMPANY, priority 2018, dated 2020).

Legend:
[1] = molecular target: T1, human DGKζ (Homo sapiens, UniProt Q13574); assay: DGKζ LIPGLO assay (extruded liposome substrate), in vitro DGK inhibition; type: biochemical; conditions: liposome (LIPGLO) assay; read-out: DGKz LIPGLO IC50
T1 construct: TVMV protease cleavage site (C); Hexa-His (C); made in house; host or cells: Sf9 insect cells (baculovirus, Bac-to-Bac)
T1 sequence (Q13574 with tags, fused parts or gaps isoform Q13574-4): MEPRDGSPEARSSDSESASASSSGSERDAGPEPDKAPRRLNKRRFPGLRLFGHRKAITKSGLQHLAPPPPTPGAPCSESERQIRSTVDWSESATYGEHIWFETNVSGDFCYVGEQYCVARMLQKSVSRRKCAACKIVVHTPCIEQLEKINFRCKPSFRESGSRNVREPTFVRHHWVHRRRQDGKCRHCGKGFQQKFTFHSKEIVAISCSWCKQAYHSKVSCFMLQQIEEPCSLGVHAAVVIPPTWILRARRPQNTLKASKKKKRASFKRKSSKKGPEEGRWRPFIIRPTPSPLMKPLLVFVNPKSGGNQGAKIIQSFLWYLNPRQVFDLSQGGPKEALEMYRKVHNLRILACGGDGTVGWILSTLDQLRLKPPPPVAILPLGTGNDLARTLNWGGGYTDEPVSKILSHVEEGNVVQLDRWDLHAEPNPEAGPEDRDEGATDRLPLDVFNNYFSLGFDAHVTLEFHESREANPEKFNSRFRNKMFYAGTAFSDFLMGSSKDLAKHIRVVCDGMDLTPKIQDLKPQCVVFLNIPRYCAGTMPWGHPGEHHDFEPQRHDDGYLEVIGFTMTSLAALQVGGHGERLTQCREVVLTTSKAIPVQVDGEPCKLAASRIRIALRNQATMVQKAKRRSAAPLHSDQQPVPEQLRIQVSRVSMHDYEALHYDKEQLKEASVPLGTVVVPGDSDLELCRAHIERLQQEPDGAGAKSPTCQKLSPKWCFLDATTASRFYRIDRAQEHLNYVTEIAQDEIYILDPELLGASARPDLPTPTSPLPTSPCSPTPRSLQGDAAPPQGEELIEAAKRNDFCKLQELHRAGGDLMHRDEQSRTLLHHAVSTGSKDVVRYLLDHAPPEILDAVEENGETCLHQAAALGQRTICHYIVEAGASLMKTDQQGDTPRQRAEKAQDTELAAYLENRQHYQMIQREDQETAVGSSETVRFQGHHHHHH

[2] = molecular target: T2, human DGKα (Homo sapiens, UniProt P23743); assay: DGKα LIPGLO assay (extruded liposome substrate), in vitro DGK inhibition; type: biochemical; conditions: liposome (LIPGLO) assay; read-out: DGKa LIPGLO IC50
T2 construct: TVMV protease cleavage site (C); Hexa-His (C); made in house; host or cells: Sf9 insect cells (baculovirus, Bac-to-Bac)
T2 sequence (P23743 with tags, fused parts or gaps): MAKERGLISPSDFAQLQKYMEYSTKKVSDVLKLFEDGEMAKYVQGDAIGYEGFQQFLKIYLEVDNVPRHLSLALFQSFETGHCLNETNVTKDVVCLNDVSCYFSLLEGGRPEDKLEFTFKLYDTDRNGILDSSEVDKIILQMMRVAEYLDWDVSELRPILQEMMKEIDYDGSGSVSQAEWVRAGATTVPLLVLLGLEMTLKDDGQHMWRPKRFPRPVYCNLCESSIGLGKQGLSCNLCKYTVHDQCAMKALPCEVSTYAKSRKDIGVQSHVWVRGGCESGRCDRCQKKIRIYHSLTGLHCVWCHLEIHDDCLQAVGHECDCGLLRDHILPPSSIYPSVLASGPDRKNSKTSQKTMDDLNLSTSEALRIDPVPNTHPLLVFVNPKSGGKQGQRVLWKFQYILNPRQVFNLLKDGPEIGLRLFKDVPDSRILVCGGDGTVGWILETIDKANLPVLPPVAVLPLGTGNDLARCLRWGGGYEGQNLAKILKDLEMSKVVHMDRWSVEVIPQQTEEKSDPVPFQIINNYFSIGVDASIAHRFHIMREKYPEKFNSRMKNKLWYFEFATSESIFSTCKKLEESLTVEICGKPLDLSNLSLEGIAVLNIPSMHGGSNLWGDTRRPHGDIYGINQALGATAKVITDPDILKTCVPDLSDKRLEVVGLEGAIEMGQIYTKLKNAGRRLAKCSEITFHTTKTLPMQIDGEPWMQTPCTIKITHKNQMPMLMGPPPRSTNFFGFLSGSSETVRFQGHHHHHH

Row | IC50 [1] | IC50 [2] | SMILES
1 | 240 µM | 3.6 µM | CC(C)[C@H]1CN(c2c(C#N)c(=O)n(C)c3ccc(Br)nc23)CCN1C(c1ccc(F)cc1)c1ccc(F)cc1 [Example 11, (S)-4-(4-(bis(4-fluorophenyl)methyl)-3-isopropylpiperazin-1-yl)-6-bromo-1-methyl-2-oxo-1,2-dihydro-1,5-naphthyridine-3-carbonitrile]
2 | 150 µM | 24 µM | Cn1c(=O)c(C#N)c(N2CCN(C(c3ccc(F)cc3)c3ccc(F)cc3)C(C(=O)O)C2)c2nc(Br)ccc21 (stereo not drawn) [Example 52, 1-(bis(4-fluorophenyl)methyl)-4-(6-bromo-3-cyano-1-methyl-2-oxo-1,2-dihydro-1,5-naphthyridin-4-yl)piperazine-2-carboxylic acid]
3 | 8.3 µM | 2.9 µM | C[C@@H]1CN(c2c(C#N)c(=O)n(C)c3ccc(Br)nc23)CCN1C(c1ccc(Cl)cc1)c1ccc(Cl)cc1 [Example 102, (R)-4-(4-(bis(4-chlorophenyl)methyl)-3-methylpiperazin-1-yl)-6-bromo-1-methyl-2-oxo-1,2-dihydro-1,5-naphthyridine-3-carbonitrile]
4 | 240 µM | 36 µM | CC(C)[C@H]1CN(C(c2ccc(F)cc2)c2ccc(F)cc2)[C@@H](C)CN1c1cc(=O)n(C)c2ccc(C#N)nc12 [Example 125, 8-((2S,5S)-4-(bis(4-fluorophenyl)methyl)-2-isopropyl-5-methylpiperazin-1-yl)-5-methyl-6-oxo-5,6-dihydro-1,5-naphthyridine-2-carbonitrile]
5 | 23 µM | 9 µM | Cn1c(=O)cc(N2CCN(C(c3ccc(F)cc3)c3ccc(F)cc3)CC2C#N)c2nc(C#N)ccc21 (stereo not drawn) [Example 145, 8-(4-(bis(4-fluorophenyl)methyl)-2-cyanopiperazin-1-yl)-5-methyl-6-oxo-5,6-dihydro-1,5-naphthyridine-2-carbonitrile]
6 | 2.4 µM | 1.9 µM | COC(=O)C1CN(C(c2ccc(F)cc2)c2ccc(F)cc2)CCN1c1c(Br)c(=O)n(C)c2ccc(C#N)nc12 (stereo not drawn) [Example 162, Methyl 4-(bis(4-fluorophenyl)methyl)-1-(3-bromo-6-cyano-1-methyl-2-oxo-1,2-dihydro-1,5-naphthyridin-4-yl)piperazine-2-carboxylate]
7 | 31 µM | 8.5 µM | Cc1ncc(C(c2ccc(Cl)cc2)N2CCN(c3c(C#N)c(=O)n(C)c4ccc(C#N)nc34)C[C@H]2C)cn1 (stereo partly drawn) [Example 314, 8-((3R)-4-((4-chlorophenyl)(2-methylpyrimidin-5-yl)methyl)-3-methylpiperazin-1-yl)-5-methyl-6-oxo-5,6-dihydro-1,5-naphthyridine-2,7-dicarbonitrile]
8 | 1.8 µM | 4.1 µM | Cc1nccc(C(c2ccc(F)cc2)N2CCN(c3c(C#N)c(=O)n(C)c4ccc(C#N)nc34)C[C@H]2C)n1 (stereo partly drawn) [Example 315, 8-((3R)-4-((4-fluorophenyl)(2-methylpyrimidin-4-yl)methyl)-3-methylpiperazin-1-yl)-5-methyl-6-oxo-5,6-dihydro-1,5-naphthyridine-2,7-dicarbonitrile]
9 | 0.93 µM | 2.4 µM | Cc1nccc(C(c2ccc(F)cc2)N2CCN(c3c(C#N)c(=O)n(C)c4ccc(C#N)nc34)C[C@H]2C)n1 (stereo partly drawn) [Example 316, 8-((3R)-4-((4-fluorophenyl)(2-methylpyrimidin-4-yl)methyl)-3-methylpiperazin-1-yl)-5-methyl-6-oxo-5,6-dihydro-1,5-naphthyridine-2,7-dicarbonitrile]
10 | 13 µM | 3.8 µM | C[C@@H]1CN(c2c(C#N)c(=O)n(C)c3ccc(C#N)nc23)CCN1C(c1ccc(F)cc1)c1cncnc1 (stereo partly drawn) [Example 317, 8-((3R)-4-((4-fluorophenyl)(pyrimidin-5-yl)methyl)-3-methylpiperazin-1-yl)-5-methyl-6-oxo-5,6-dihydro-1,5-naphthyridine-2,7-dicarbonitrile]
11 | 1.4 µM | 72 µM | CCC(c1cc(Cl)cc2c1OCC2)N1C[C@H](C)N(c2cc(=O)n(C)c3ccc(C#N)nc23)C[C@H]1C (stereo partly drawn) [Example 353, 8-((2S,5R)-4-(1-(5-chloro-2,3-dihydrobenzofuran-7-yl)propyl)-2,5-dimethylpiperazin-1-yl)-5-methyl-6-oxo-5,6-dihydro-1,5-naphthyridine-2-carbonitrile]
12 | 0.76 µM | 1.1 µM | C[C@@H]1CN(c2cc(=O)n(C)c3ccc(C#N)nc23)[C@@H](C)CN1C(c1cccc(F)c1)c1ccc(C(F)(F)F)cn1 (stereo partly drawn) [Example 370, 8-((2S,5R)-4-((3-fluorophenyl)(5-(trifluoromethyl)pyridin-2-yl)methyl)-2,5-dimethylpiperazin-1-yl)-5-methyl-6-oxo-5,6-dihydro-1,5-naphthyridine-2-carbonitrile]
13 | 3.9 µM | 0.31 µM | C[C@@H]1CN(c2cc(=O)n(C)c3ccc(C#N)nc23)[C@@H](C)CN1C(c1ccc(OC(F)(F)F)cc1)c1ccccn1 (stereo partly drawn) [Example 377, 8-((2S,5R)-2,5-dimethyl-4-(pyridin-2-yl(4-(trifluoromethoxy)phenyl)methyl)piperazin-1-yl)-5-methyl-6-oxo-5,6-dihydro-1,5-naphthyridine-2-carbonitrile]
14 | 6.3 µM | 3.3 µM | Cc1ncc(C(c2ccc(Cl)cc2)N2C[C@H](C)N(c3cc(=O)n(C)c4ccc(C#N)nc34)C[C@H]2C)cn1 (stereo partly drawn) [Example 385, 8-((2S,5R)-4-((4-chlorophenyl) (2-methylpyrimidin-5-yl)methyl)-2,5-dimethylpiperazin-1-yl)-5-methyl-6-oxo-5,6-dihydro-1,5-naphthyridine-2-carbonitrile]
15 | 3.2 µM | 4.2 µM | C[C@@H]1CN(c2cc(=O)n(C)c3ccc(C#N)nc23)[C@@H](C)CN1C(c1ccc(F)cc1)c1cncc(F)c1 (stereo partly drawn) [Example 400, 8-((2S,5R)-4-((4-fluorophenyl)(5-fluoropyridin-3-yl)methyl)-2,5-dimethylpiperazin-1-yl)-5-methyl-6-oxo-5,6-dihydro-1,5-naphthyridine-2-carbonitrile]
16 | 4.1 µM | 0.36 µM | C[C@@H]1CN(c2cc(=O)n(C)c3ccc(C#N)nc23)[C@@H](C)CN1C(c1cccc(F)c1)c1ccccn1 (stereo partly drawn) [Example 404, 8-((2S,5R)-4-((3-fluorophenyl)(pyridin-2-yl)methyl)-2,5-dimethylpiperazin-1-yl)-5-methyl-6-oxo-5,6-dihydro-1,5-naphthyridine-2-carbonitrile]
17 | 4 µM | 0.46 µM | C[C@@H]1CN(c2cc(=O)n(C)c3ccc(C#N)nc23)[C@@H](C)CN1C(c1ccc(OC(F)(F)F)cc1)c1ccccn1 (stereo partly drawn) [Example 405, 8-((2S,5R)-2,5-dimethyl-4-(pyridin-2-yl(4-(trifluoromethoxy)phenyl)methyl)piperazin-1-yl)-5-methyl-6-oxo-5,6-dihydro-1,5-naphthyridine-2-carbonitrile]
18 | 1.7 µM | 0.28 µM | C[C@@H]1CN(c2cc(=O)n(C)c3ccc(C#N)nc23)[C@@H](C)CN1C(c1ccc(C#N)cc1)c1ccc(F)cn1 (stereo partly drawn) [Example 464, 8-((2S,5R)-4-((4-cyanophenyl)(5-fluoropyridin-2-yl)methyl)-2,5-dimethylpiperazin-1-yl)-5-methyl-6-oxo-5,6-dihydro-1,5-naphthyridine-2-carbonitrile]
